Assay results from publication PMC9404792, “Synthesis and Antioxidant Properties of HeteroBisNitrones Derived from Benzene Dicarbaldehydes” (Antioxidants, 2022).

Molecular target: T1, soybean lipoxygenase (LOX) (Glycine max, UniProt P08170)
T1 construct: gene LOX1.1
T1 sequence (P08170 1-839): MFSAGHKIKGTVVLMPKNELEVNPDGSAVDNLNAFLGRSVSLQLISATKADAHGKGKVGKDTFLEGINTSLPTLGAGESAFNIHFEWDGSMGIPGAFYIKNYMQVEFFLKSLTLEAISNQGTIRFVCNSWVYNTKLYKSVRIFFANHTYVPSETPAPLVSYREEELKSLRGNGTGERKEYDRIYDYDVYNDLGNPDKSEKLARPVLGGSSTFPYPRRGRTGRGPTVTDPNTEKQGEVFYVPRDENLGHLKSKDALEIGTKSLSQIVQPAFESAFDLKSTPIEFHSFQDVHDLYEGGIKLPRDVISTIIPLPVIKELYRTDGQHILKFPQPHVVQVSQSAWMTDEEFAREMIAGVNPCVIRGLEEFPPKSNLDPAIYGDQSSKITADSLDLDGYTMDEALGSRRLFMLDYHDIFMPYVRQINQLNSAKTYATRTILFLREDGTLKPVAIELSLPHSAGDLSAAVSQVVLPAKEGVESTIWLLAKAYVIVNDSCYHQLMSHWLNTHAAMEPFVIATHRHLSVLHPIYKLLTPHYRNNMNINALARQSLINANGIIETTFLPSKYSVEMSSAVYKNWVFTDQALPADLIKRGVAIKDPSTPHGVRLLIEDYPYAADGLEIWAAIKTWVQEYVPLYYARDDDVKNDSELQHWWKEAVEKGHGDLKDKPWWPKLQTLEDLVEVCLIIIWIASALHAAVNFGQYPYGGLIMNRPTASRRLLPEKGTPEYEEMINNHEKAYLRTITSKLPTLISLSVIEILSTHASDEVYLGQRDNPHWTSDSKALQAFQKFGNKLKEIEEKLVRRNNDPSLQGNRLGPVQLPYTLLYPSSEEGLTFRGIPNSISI
Assay: UV assay at […] nm of sodium linoleate conversion to 13-hydroperoxylinoleic acid
Format: biochemical
Settings: read-out: LOX Inhibition (% or IC50 [μM])

SMILES	IC50 [µM]
C/[N+]([O-])=C/c1ccccc1/C=[N+](\[O-])Cc1ccccc1 [hBN8, (Z)-N-Benzyl-1-(2-((Z)-(methyloxidoazaneylidene)methyl)phenyl)methanimine oxide]	82.5
CC(C)(C)/[N+]([O-])=C/c1ccccc1/C=[N+](\[O-])Cc1ccccc1 [hBN9, (Z)-N-Benzyl-1-(2-((Z)-(tert-butyloxidoazaneylidene)methyl)phenyl)methanimine oxide]	57.5
